Experimental data from the supplement of paper PMC10307832.

Legend:
Assay in all cases: relative viability (nuclei count vs DMSO), 5 days (fraction); higher = more cells survive
[1] = compound: CCN1CCN(c2ccc(Nc3cc(N(C)C(=O)Nc4c(Cl)c(OC)cc(OC)c4Cl)ncn3)cc2)CC1 [BGJ398] + COc1cccc2cc(-c3nc([C@H]4CC[C@H](C(=O)O)CC4)n4ncnc(N)c34)[nH]c12 [OSI-027] (partner 0.5 µM)
Summary of the method: (§1)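 Lung cancer cell lines in 1536-well plates were dosed by pin tool the day after seeding, either with one drug alone or with a fixed anchor-drug dose plus five library-drug doses (not always all listed) in √10 steps. After 5 days, cells were fixed and their nuclei stained in one step (final 0.05% Triton X-100, 1% formaldehyde, 1 ug/ml Hoechst), then counted on 4× images. Relative viability is the nuclei count in treated wells divided by that in vehicle wells. Values are medians of duplicate plates.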

[2] = compound: CCN1CCN(c2ccc(Nc3cc(N(C)C(=O)Nc4c(Cl)c(OC)cc(OC)c4Cl)ncn3)cc2)CC1 [BGJ398] + CC(C)C[C@H](NC(=O)[C@H](Cc1ccccc1)NC(=O)c1cnccn1)B(O)O [Bortezomib] (partner 0.002 µM)
Summary of the method: as §1

[3] = compound: C1=CC2=NC=CN=C2C=C1/C=C/3\C(=O)NC(=O)S3 + C[C@]1(O)C[C@@H](c2nc(-c3ccc4ccc(-c5ccccc5)nc4c3)c3c(N)nccn32)C1 [Linsitinib] (partner 1 µM)
Summary of the method: as §1

[4] = compound: CCN1CCN(c2ccc(Nc3cc(N(C)C(=O)Nc4c(Cl)c(OC)cc(OC)c4Cl)ncn3)cc2)CC1 [BGJ398] + COc1cc2c(Oc3ccc(NC(=O)C4(C(=O)Nc5ccc(F)cc5)CC4)cc3F)ccnc2cc1OCCCN1CCOCC1 [Foretinib] (partner 0.25 µM)
Summary of the method: as §1

UMC-11
relative viability ([1]; first compound 0.01 µM): 0.494 | relative viability ([1]; first compound 0.03162 µM): 0.449 | relative viability ([1]; first compound 0.1 µM): 0.53 | relative viability ([1]; first compound 0.3162 µM): 0.411 | relative viability ([1]; first compound 1 µM): 0.429 | relative viability ([2]; first compound 0.01 µM): 0.759 | relative viability ([2]; first compound 0.03162 µM): 0.632 | relative viability ([2]; first compound 0.1 µM): 0.706 | relative viability ([2]; first compound 0.3162 µM): 0.661 | relative viability ([2]; first compound 1 µM): 0.475 | relative viability ([3]; first compound 0.02 µM): 1.02 | relative viability ([3]; first compound 0.06325 µM): 1.12 | relative viability ([3]; first compound 0.2 µM): 1.05 | relative viability ([3]; first compound 0.6325 µM): 0.989 | relative viability ([3]; first compound 2 µM): 1.11 | relative viability ([4]; first compound 0.01 µM): 0.962 | relative viability ([4]; first compound 0.03162 µM): 1 | relative viability ([4]; first compound 0.1 µM): 1.14 | relative viability ([4]; first compound 0.3162 µM): 0.977 | relative viability ([4]; first compound 1 µM): 0.924
